Data from ChEMBL document CHEMBL5649166, “RIP3 induces apoptosis independent of pronecrotic kinase activity” (Mol Cell, 2014).

Tests used:
[1] = molecular target: T1, Tyrosine-protein kinase ITK/TSK (Homo sapiens) (UniProt Q08881); test: Inhibition of human ITK using myelin basic protein as substrate at 1 uM in presence of 32P-ATP by Hotspot assay relative to control; values are per cent of control
T1 sequence (whole entry): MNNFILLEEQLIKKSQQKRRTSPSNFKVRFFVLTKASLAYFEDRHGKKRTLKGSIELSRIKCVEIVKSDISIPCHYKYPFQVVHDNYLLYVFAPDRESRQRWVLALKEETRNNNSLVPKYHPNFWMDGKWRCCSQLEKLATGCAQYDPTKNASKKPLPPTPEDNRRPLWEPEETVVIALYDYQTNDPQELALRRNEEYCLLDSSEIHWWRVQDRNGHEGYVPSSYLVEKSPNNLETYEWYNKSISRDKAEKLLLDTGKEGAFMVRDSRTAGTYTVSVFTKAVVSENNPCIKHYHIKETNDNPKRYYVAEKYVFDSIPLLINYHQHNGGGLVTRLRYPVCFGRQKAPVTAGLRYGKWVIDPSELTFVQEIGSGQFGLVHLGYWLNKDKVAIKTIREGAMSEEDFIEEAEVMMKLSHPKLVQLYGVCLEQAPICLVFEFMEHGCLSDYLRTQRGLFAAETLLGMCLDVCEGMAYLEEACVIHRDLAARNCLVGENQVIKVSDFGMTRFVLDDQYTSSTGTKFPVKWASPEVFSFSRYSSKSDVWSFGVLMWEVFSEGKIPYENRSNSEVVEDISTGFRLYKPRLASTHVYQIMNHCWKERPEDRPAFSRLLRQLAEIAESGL

[2] = molecular target: Tyrosine-protein kinase Lck (Homo sapiens) (UniProt P06239); test: Inhibition of human LCK using poly[Glu:Tyr] (4:1) as substrate at 1 uM in presence of 32P-ATP by Hotspot assay relative to control; values are per cent of control
Chain of Tyrosine-protein kinase Lck (Homo sapiens) (P06239 2-509 limits assumed): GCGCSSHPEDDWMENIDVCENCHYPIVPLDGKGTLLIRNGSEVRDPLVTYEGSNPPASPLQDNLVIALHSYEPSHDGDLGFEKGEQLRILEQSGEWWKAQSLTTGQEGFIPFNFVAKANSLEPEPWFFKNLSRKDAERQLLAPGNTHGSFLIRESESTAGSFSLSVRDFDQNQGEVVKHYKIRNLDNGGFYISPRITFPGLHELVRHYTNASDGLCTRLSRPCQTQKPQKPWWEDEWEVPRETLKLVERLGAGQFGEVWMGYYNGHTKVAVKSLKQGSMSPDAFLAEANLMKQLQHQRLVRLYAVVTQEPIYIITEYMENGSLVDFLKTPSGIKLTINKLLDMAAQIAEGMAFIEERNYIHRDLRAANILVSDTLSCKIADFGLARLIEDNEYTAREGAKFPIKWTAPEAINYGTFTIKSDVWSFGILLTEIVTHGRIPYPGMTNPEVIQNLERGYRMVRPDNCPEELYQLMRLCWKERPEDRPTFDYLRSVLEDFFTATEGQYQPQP

[3] = molecular target: Serine/threonine-protein kinase pim-3 (Homo sapiens) (UniProt Q86V86); test: Inhibition of human PIM3 using RSRHSSYPAGT as substrate at 1 uM in presence of 32P-ATP by Hotspot assay relative to control; values are per cent of control
[4] = molecular target: Platelet-derived growth factor receptor alpha (Homo sapiens) (UniProt P16234); test: Inhibition of human PDGFRa using poly[Glu:Tyr] (4:1) as substrate at 1 uM in presence of 32P-ATP by Hotspot assay relative to control; values are per cent of control
[5] = molecular target: Serine/threonine-protein kinase WNK3 (Homo sapiens) (UniProt Q9BYP7); test: Inhibition of human WNK3 using myelin basic protein as substrate at 1 uM in presence of 32P-ATP by Hotspot assay relative to control; values are per cent of control
Chain of Serine/threonine-protein kinase WNK3 (Homo sapiens) (Q9BYP7 whole entry): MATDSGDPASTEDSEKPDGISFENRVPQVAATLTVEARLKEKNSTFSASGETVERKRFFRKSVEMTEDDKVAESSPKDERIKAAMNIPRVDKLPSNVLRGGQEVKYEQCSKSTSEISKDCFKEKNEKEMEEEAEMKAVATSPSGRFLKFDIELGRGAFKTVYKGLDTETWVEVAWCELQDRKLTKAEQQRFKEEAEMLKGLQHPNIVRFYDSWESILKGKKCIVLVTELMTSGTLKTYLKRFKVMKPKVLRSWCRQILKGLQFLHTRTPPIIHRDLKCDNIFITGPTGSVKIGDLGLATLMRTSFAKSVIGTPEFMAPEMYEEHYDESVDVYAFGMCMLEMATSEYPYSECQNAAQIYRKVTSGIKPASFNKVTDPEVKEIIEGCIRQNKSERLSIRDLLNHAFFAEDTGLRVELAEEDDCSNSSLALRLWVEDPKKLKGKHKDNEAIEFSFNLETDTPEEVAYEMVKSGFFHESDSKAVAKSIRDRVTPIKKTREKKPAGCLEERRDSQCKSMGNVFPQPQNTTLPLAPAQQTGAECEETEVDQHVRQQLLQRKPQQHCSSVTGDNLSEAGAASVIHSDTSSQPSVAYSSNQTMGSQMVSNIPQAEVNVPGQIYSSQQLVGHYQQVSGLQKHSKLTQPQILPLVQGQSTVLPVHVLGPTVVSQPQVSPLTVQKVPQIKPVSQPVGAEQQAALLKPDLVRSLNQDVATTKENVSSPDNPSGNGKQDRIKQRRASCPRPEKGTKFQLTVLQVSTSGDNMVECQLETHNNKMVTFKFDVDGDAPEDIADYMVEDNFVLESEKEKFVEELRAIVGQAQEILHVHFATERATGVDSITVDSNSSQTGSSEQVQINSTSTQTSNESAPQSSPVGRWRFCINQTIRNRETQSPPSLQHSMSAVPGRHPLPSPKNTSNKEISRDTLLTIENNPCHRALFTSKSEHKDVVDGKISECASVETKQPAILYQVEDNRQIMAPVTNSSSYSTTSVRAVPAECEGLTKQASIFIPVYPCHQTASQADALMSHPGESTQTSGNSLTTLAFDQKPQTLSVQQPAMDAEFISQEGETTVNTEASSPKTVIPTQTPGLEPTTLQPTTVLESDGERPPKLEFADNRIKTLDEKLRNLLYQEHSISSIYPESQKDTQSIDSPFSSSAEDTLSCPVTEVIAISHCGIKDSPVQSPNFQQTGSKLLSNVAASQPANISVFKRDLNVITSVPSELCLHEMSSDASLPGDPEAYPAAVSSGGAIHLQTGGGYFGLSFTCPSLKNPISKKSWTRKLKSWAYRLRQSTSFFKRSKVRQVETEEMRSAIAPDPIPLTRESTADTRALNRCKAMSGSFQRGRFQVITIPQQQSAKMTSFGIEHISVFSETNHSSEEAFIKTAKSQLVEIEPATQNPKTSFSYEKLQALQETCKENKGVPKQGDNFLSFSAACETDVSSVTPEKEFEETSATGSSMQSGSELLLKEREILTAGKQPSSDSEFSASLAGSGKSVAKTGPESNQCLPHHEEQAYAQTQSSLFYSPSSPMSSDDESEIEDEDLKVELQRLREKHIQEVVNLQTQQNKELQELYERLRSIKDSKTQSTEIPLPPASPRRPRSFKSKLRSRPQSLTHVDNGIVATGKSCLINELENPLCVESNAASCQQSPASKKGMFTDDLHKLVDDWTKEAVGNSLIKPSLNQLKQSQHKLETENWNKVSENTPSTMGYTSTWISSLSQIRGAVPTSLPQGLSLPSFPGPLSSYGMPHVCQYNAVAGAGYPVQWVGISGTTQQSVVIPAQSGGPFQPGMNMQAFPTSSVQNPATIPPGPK

[6] = molecular target: CDK6/cyclin D3 (Homo sapiens) (UniProt P30281+Q00534); test: Inhibition of human CDK6/cyclin D3 using RB Protein as substrate at 1 uM in presence of 32P-ATP by Hotspot assay relative to control; values are per cent of control
[7] = species: Homo sapiens; test: Inhibition of human PKA using LCGRTGRRNSI as substrate at 1 uM in presence of 32P-ATP by Hotspot assay relative to control; values are per cent of control
[8] = molecular target: Death-associated protein kinase 1 (Homo sapiens) (UniProt P53355); test: Inhibition of human DAPK1 using KKLNRTLSFAEPG as substrate at 1 uM in presence of 32P-ATP by Hotspot assay relative to control; values are per cent of control
Chain of Death-associated protein kinase 1 (Homo sapiens) (P53355 whole entry, looked up): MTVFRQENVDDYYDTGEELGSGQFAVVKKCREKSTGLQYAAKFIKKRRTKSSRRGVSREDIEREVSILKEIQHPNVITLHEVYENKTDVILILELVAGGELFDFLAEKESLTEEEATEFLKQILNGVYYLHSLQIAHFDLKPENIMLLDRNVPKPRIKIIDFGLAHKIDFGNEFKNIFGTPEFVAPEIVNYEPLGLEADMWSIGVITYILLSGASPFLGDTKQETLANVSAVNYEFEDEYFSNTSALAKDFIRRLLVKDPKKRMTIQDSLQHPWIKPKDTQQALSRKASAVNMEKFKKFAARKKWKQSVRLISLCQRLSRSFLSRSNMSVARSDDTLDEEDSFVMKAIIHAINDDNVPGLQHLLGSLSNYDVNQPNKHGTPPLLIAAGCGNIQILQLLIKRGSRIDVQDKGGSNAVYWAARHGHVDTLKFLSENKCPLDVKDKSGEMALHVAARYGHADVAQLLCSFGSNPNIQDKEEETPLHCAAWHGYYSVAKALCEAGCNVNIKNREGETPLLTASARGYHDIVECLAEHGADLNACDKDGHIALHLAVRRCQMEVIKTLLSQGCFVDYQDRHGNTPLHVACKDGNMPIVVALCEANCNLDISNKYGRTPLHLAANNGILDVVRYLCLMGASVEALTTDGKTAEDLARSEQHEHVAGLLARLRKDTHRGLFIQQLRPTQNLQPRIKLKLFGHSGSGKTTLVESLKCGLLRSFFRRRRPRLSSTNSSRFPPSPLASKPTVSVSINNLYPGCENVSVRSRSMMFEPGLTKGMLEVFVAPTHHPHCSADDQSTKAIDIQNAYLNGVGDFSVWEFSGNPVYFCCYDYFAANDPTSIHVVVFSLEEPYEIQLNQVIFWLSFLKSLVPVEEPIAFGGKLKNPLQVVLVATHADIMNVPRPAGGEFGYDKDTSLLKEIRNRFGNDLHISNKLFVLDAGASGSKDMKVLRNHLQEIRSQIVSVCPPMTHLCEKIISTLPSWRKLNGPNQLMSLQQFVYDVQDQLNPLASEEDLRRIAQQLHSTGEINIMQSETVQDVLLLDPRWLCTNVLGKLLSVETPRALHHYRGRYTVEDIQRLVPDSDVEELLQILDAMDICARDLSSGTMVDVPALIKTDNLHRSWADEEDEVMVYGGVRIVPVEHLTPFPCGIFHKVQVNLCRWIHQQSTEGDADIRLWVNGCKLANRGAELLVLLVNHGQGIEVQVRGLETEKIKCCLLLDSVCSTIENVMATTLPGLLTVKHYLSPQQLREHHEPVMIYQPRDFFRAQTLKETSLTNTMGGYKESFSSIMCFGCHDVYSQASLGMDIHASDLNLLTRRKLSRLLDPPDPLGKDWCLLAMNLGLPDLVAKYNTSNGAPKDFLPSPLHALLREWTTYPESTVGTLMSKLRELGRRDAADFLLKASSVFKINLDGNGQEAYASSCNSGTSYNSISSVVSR

[9] = system: HT-29; test: Inhibition of TNF-alpha induced necroptosis in human HT-29 cells assessed as increase in cell viability incubated for 24 hrs in presence of zVAD and SMAC007 by Cell Titer-Glo luminescent cell viability assay; assay type: functional, cell-based; conditions: dose 0.01-3 µM
[10] = molecular target: T2, Serine/threonine-protein kinase BRSK1 (Homo sapiens) (UniProt Q8TDC3); test: Inhibition of human BRSK1 using KKKVSRSGLYRSPSMPENLNRPR as substrate at 1 uM in presence of 32P-ATP by Hotspot assay relative to control; values are per cent of control
T2 sequence (whole entry): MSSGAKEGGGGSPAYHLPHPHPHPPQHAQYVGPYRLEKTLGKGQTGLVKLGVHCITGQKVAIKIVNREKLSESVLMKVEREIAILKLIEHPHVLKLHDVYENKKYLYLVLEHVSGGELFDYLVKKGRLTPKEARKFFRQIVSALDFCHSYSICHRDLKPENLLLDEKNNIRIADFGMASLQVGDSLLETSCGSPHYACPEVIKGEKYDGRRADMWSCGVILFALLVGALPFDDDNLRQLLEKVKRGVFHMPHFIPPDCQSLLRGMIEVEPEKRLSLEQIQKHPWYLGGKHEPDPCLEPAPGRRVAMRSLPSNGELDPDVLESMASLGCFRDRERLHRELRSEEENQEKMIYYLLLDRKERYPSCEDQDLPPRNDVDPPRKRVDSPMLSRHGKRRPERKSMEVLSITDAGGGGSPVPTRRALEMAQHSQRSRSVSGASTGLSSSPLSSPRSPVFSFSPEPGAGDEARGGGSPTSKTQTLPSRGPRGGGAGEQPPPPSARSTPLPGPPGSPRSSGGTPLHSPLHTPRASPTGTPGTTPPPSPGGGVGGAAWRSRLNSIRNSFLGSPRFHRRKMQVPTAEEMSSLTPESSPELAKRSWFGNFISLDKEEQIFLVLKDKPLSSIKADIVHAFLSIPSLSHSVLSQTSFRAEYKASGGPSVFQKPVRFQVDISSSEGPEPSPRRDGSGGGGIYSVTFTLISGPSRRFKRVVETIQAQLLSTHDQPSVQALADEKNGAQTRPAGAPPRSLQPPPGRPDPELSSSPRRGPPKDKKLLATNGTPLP

[11] = molecular target: Calcium/calmodulin-dependent protein kinase type 1B (Homo sapiens) (UniProt Q6P2M8); test: Inhibition of human CAMK1b using KKALRRQETVDAL as substrate at 1 uM in presence of 32P-ATP by Hotspot assay relative to control; values are per cent of control
[12] = molecular target: Serine/threonine-protein kinase N1 (Homo sapiens) (UniProt Q16512); test: Inhibition of human PKN1/PRK1 using KKLNRTLSVA as substrate at 1 uM in presence of 32P-ATP by Hotspot assay relative to control; values are per cent of control
Chain of Serine/threonine-protein kinase N1 (Homo sapiens) (Q16512 2-942 limits assumed): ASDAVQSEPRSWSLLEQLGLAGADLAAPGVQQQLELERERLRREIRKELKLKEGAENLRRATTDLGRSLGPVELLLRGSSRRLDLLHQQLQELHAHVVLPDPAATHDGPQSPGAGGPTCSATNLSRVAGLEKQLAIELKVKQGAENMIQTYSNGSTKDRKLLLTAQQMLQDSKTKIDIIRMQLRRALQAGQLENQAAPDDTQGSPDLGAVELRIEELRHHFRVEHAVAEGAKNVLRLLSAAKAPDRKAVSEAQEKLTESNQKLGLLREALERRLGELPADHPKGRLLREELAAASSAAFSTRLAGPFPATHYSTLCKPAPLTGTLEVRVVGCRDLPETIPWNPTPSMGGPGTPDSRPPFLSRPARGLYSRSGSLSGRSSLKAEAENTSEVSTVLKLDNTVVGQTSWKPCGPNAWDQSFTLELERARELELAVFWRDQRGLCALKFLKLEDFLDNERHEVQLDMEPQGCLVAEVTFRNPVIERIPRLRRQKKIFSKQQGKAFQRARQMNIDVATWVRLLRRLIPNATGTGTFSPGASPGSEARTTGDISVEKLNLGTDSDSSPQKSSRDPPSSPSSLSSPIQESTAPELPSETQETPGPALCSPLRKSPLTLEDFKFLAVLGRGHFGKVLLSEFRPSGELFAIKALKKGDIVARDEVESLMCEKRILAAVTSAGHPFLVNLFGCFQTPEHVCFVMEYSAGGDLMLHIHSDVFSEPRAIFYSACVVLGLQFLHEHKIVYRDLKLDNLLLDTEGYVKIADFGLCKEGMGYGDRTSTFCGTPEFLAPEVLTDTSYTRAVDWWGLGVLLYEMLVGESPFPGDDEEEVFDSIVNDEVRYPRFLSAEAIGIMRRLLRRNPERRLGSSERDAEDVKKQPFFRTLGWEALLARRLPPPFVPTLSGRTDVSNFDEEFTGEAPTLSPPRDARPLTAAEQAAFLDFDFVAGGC

[13] = molecular target: Serine/threonine-protein kinase 26 (Homo sapiens) (UniProt Q9P289); test: Inhibition of human MST4 using myelin basic protein as substrate at 1 uM in presence of 32P-ATP by Hotspot assay relative to control; values are per cent of control

Row | Compound | residual activity [1] [%] | residual activity [2] [%] | residual activity [3] [%] | residual activity [4] [%] | residual activity [5] [%] | residual activity [6] [%] | residual activity [7] [%] | residual activity [8] [%] | inhibition [9] | residual activity [10] [%] | residual activity [11] [%] | residual activity [12] [%] | residual activity [13] [%]
1 | CNC(=O)c1ccc2c(c1)ncn2-c1ccc(CC(=O)OC(C)(C)C)cc1 | 99 | 13.1 | 99.9 | 32.7 | 99.9 | 51.5 | 101 | 91.6 | Dose-Dependent Effect | 96.6 | 90.2 | 97.7 | 97.5
2 | Cc1cc(-c2cnc(N)c3c(-c4ccc5scnc5c4)csc23)n(C)n1 | 98.3 | 17.3 | 99.5 | 9.84 | 83 | 89.6 | 94.9 | 95.3 | Dose-Dependent Effect | 101 | 98.5 | 96.7 | 93.5
3 | CC(C)S(=O)(=O)c1ccc2nccc(Nc3ccc4scnc4c3)c2c1 | 104 | 39.4 | 94.2 | 74.6 | 104 | 88.3 | 97.7 | 97 | Dose-Dependent Effect | 101 | 87.8 | 95.3 | 95.9
